Assay results taken from ChEMBL document CHEMBL1201862, “PubChem BioAssay data set” (2004).
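Five compound concentrations were applied to cells in 96-well plates for 48 hours; endpoints were derived by simple linear interpolation of the resulting dose-response curve. The concentration for 50% growth inhibition is given as GI50.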 Calls of active or inactive are those of the source. Rule as the data show it: active = GI50 up to about 1.1 µM and inactive = higher.

How the values were obtained:
Experiment in all cases: DTP human tumour cell line panel, 48 h
HCT-116 = tested on: HCT-116
A549 = tested on: A549
MDA-MB-231 = tested on: MDA-MB-231
A498 = tested on: A498
HL-60 = tested on: HL-60
EKVX = tested on: EKVX
HCC 2998 = tested on: HCC 2998
HOP-18 = tested on: HOP-18
RXF 631 = tested on: RXF 631
NCI-H226 = tested on: NCI-H226
SN12C = tested on: SN12C
SK-OV-3 = tested on: SK-OV-3
DMS-114 = tested on: DMS-114
HOP-92 = tested on: HOP-92
MCF7 = tested on: MCF7
SK-MEL-2 = tested on: SK-MEL-2
HT-29 = tested on: HT-29
COLO 205 = tested on: COLO 205
UO-31 = tested on: UO-31
OVCAR-4 = tested on: OVCAR-4
NCI-H460 = tested on: NCI-H460
MOLT-4 = tested on: MOLT-4
ACHN = tested on: ACHN
M19-MEL = tested on: M19-MEL
NCI-H23 = tested on: NCI-H23
LOX IMVI = tested on: LOX IMVI
Malme-3M = tested on: Malme-3M
NCI-H522 = tested on: NCI-H522
SNB-78 = tested on: SNB-78
HCT-15 = tested on: HCT-15
SR = tested on: SR
SK-MEL-28 = tested on: SK-MEL-28
MDA-MB-435 = tested on: MDA-MB-435
KM-20L2 = tested on: KM-20L2
CAKI-1 = tested on: CAKI-1
SK-MEL-5 = tested on: SK-MEL-5
SF-539 = tested on: SF-539
IGROV-1 = tested on: IGROV-1
SNB-19 = tested on: SNB-19
KM12 = tested on: KM12
U-251 = tested on: U-251
M14 = tested on: M14
OVCAR-8 = tested on: OVCAR-8
RXF 393 = tested on: RXF 393
Hs-578T = tested on: Hs-578T
SF-295 = tested on: SF-295
BT-549 = tested on: BT-549
DU-145 = tested on: DU-145
PC-3 = tested on: PC-3
SW-620 = tested on: SW-620
HOP-62 = tested on: HOP-62
MDA-N = tested on: MDA-N
UACC-62 = tested on: UACC-62
LXFL 529 = tested on: LXFL 529
786-0 = tested on: 786-0
DLD-1 = tested on: DLD-1
SNB-75 = tested on: SNB-75
SF-268 = tested on: SF-268
TK-10 = tested on: TK-10
OVCAR-3 = tested on: OVCAR-3
T47D = tested on: T47D
OVCAR-5 = tested on: OVCAR-5
DMS-273 = tested on: DMS-273
UACC-257 = tested on: UACC-257
CCRF-CEM = tested on: CCRF-CEM
K562 = tested on: K562
RPMI-8226 = tested on: RPMI-8226
XF498 = tested on: XF498

For `C=C(C)C(=O)OC1CC2=CC(CC3(C)OC3C3OC(=O)C(=C)C13)OC2=O` (centres undefined), the GI50 (HCT-116) was 5.01 µM (inactive), the GI50 (A549) was 18.6 µM (inactive) and the GI50 (MDA-MB-231) was 18.1 µM (inactive). For the same molecule, the GI50 (A498) was 16.6 µM (inactive), the GI50 (HL-60) was 1.12 µM (active) and the GI50 (EKVX) was 15 µM (inactive). For the same molecule, the GI50 (HCC 2998) was 20 µM (inactive), the GI50 (HOP-18) was 19.9 µM (inactive) and the GI50 (RXF 631) was 15.8 µM (inactive). The GI50 (NCI-H226) was 22.2 µM (inactive), the GI50 (SN12C) was 13.7 µM (inactive) and the GI50 (SK-OV-3) was 18.8 µM (inactive). For the same molecule, the GI50 (DMS-114) was 15.2 µM (inactive), the GI50 (HOP-92) was 2.9 µM (inactive) and the GI50 (MCF7) was 3.81 µM (inactive). For the same molecule, the GI50 (SK-MEL-2) was 12.9 µM (inactive), the GI50 (HT-29) was 6.97 µM (inactive) and the GI50 (COLO 205) was 2.91 µM (inactive). For the same molecule, the GI50 (UO-31) was 13.1 µM (inactive), the GI50 (OVCAR-4) was 12.6 µM (inactive) and the GI50 (NCI-H460) was 17.9 µM (inactive). The GI50 (MOLT-4) was 1.84 µM (inactive), the GI50 (ACHN) was 5.41 µM (inactive) and the GI50 (M19-MEL) was 6.62 µM (inactive). For the same molecule, the GI50 (NCI-H23) was 15.4 µM (inactive), the GI50 (LOX IMVI) was 4.14 µM (inactive) and the GI50 (Malme-3M) was 4.23 µM (inactive). For the same molecule, the GI50 (NCI-H522) was 1.92 µM (inactive), the GI50 (SNB-78) was 12.1 µM (inactive) and the GI50 (HCT-15) was 8.07 µM. For the same molecule, the GI50 (SR) was 2.51 µM (inactive), the GI50 (SK-MEL-28) was 12.3 µM (inactive) and the GI50 (MDA-MB-435) was 15.2 µM (inactive). The GI50 (KM-20L2) was 15 µM (inactive), the GI50 (CAKI-1) was 4.58 µM (inactive) and the GI50 (SK-MEL-5) was 16.9 µM (inactive). For the same molecule, the GI50 (SF-539) was 10.9 µM (inactive), the GI50 (IGROV-1) was 19.3 µM (inactive) and the GI50 (SNB-19) was 18.5 µM (inactive). The GI50 (KM12) was 15.6 µM (inactive), the GI50 (U-251) was 17.4 µM (inactive) and the GI50 (M14) was 4.41 µM (inactive). The GI50 (OVCAR-8) was 9.66 µM (inactive), the GI50 (RXF 393) was 2.9 µM (inactive) and the GI50 (Hs-578T) was 22.6 µM (inactive). For the same molecule, the GI50 (SF-295) was 18.6 µM (inactive), the GI50 (BT-549) was 11.8 µM (inactive) and the GI50 (DU-145) was 23.7 µM (inactive). For the same molecule, the GI50 (PC-3) was 14.7 µM (inactive), the GI50 (SW-620) was 2.24 µM (inactive) and the GI50 (HOP-62) was 22.4 µM (inactive). The GI50 (MDA-N) was > 10 µM (inactive), the GI50 (UACC-62) was 9.18 µM (inactive) and the GI50 (LXFL 529) was 2.51 µM (inactive). The GI50 (786-0) was 7.24 µM (inactive), the GI50 (DLD-1) was 1.99 µM (inactive) and the GI50 (SNB-75) was 14.7 µM (inactive). For the same molecule, the GI50 (SF-268) was 20.7 µM (inactive), the GI50 (TK-10) was 7.73 µM (inactive) and the GI50 (OVCAR-3) was 10.7 µM (inactive). The GI50 (T47D) was 4.67 µM (inactive), the GI50 (OVCAR-5) was 20 µM (inactive) and the GI50 (DMS-273) was 12.9 µM (inactive). The GI50 (UACC-257) was 5.41 µM (inactive).

For `Cc1c(Cl)cccc1NC(=O)C(=O)C(C(=O)c1ccccc1-c1ccccc1)C1OC(=O)c2ccccc21` (centres undefined), the GI50 (HCT-116) was 12.5 µM (inactive), the GI50 (A549) was 22.4 µM (inactive) and the GI50 (HL-60) was 16.8 µM (inactive). For the same molecule, the GI50 (CCRF-CEM) was 19.8 µM (inactive), the GI50 (EKVX) was 26.8 µM (inactive) and the GI50 (HCC 2998) was 17.1 µM (inactive). For the same molecule, the GI50 (RXF 631) was 23.7 µM (inactive), the GI50 (NCI-H226) was 3.94 µM (inactive) and the GI50 (SK-OV-3) was 43 µM (inactive). The GI50 (DMS-114) was 16 µM (inactive), the GI50 (HOP-92) was 15.2 µM (inactive) and the GI50 (SK-MEL-2) was 16.1 µM (inactive). For the same molecule, the GI50 (HT-29) was 33.1 µM (inactive), the GI50 (COLO 205) was 20.2 µM (inactive) and the GI50 (UO-31) was 20.4 µM (inactive). The GI50 (K562) was 27.9 µM (inactive), the GI50 (NCI-H460) was 25.5 µM (inactive) and the GI50 (MOLT-4) was 14.3 µM (inactive). The GI50 (M19-MEL) was 15.1 µM (inactive), the GI50 (NCI-H23) was 14.5 µM (inactive) and the GI50 (LOX IMVI) was 18.3 µM (inactive). For the same molecule, the GI50 (Malme-3M) was 12.7 µM (inactive), the GI50 (NCI-H522) was 12.5 µM (inactive) and the GI50 (SNB-78) was 22.2 µM (inactive). The GI50 (SK-MEL-28) was 19 µM (inactive), the GI50 (KM-20L2) was 23.7 µM (inactive) and the GI50 (SK-MEL-5) was 15.7 µM (inactive). For the same molecule, the GI50 (RPMI-8226) was 13.8 µM (inactive), the GI50 (SF-539) was 14.7 µM (inactive) and the GI50 (IGROV-1) was 32.1 µM (inactive). The GI50 (KM12) was 18.5 µM (inactive), the GI50 (U-251) was 13.5 µM (inactive) and the GI50 (M14) was 17 µM (inactive). The GI50 (OVCAR-8) was 25.5 µM (inactive), the GI50 (RXF 393) was 12.6 µM (inactive) and the GI50 (XF498) was 11.5 µM (inactive). The GI50 (SF-295) was 19.1 µM (inactive), the GI50 (SW-620) was 21.3 µM (inactive) and the GI50 (HOP-62) was 16.3 µM (inactive). The GI50 (UACC-62) was 17.9 µM (inactive), the GI50 (LXFL 529) was 14 µM (inactive) and the GI50 (786-0) was 16.6 µM (inactive). The GI50 (DLD-1) was 22.8 µM (inactive), the GI50 (SNB-75) was 19.3 µM (inactive) and the GI50 (SF-268) was 19.7 µM (inactive). The GI50 (TK-10) was 28.6 µM (inactive), the GI50 (OVCAR-3) was 16 µM (inactive) and the GI50 (OVCAR-5) was 22.5 µM (inactive). The GI50 (DMS-273) was 24.4 µM (inactive) and the GI50 (UACC-257) was 13.5 µM (inactive).
